Experimental findings from patent US7973072B2, “Substituted benzo-condensed cyclohexanone derivatives and the use thereof for medicament production” (Gruenenthal GmbH, priority 2005, dated 2011) are described below.

Data set [1] deals with T1, vanilloid receptor 1 (VR1/TRPV1) of the rat (Rattus norvegicus, UniProt O35433).
T1 construct: host or cells: rat dorsal root ganglia primary cells (Ia) or CHO K1 cells stably transfected with the rat VR1 gene (Ib)
Description: FLIPR Ca2+ functional study on rat vanilloid receptor 1 (rat dorsal root ganglia cells or CHO K1 cells transfected with rat VR1). The format is cell-based. Conditions: for activation at 10 µM / inhibition at 10 µM: CHO-K1, test compound 10 μM; for activation at 10 µM: % activation based on Ca2+ signal after 10 μM capsaicin (CP), read-out: VR1 (rat) (% stimulation compared to 10 μM CP); for inhibition at 10 µM: suppression of Ca2+ current after 100 nM capsaicin, relative to maximum inhibition with 10 μM capsaicin (CP), read-out: VR1 (rat) (% inhibition compared to 10 μM CP); for EC50: agonistic action. The protocol: The agonistic or antagonistic action of the substances to be studied on the vanilloid receptor 1 (VR1/TRPV1) of the rat species can be determined with the following assay. In this assay, the Ca^2+ current through the receptor channel is quantified with the aid of a Ca^2+-sensitive dye (Fluo-4 type, Molecular Probes Europe BV, Leiden the Netherlands) in a fluorescent imaging plate reader (FLIPR, Molecular Devices, Sunnyvale, USA).
Complete medium: 50 ml HAMS F12 Nutrient Mixture (Gibco Invitrogen GmbH, Karlsruhe, Germany) with
10% by volume of FCS (fetal calf serum, Gibco Invitrogen GmbH, Karlsruhe, Germany, heat-inactivated);
2 mM L-glutamine (Sigma, Munich, Germany);
1% by weight of AA solution (antibiotic/antimycotic solution, PAA, Pasching, Austria) and 25 ng/ml of NGF medium (2.5 S, Gibco Invitrogen GmbH, Karlsruhe, Germany)
Cell culture plate: poly-D-lysine-coated, black 96-hole plates with a clear bottom (96 well black/clear plate, BD Biosciences, Heidelberg, Germany) are additionally coated with laminin (Gibco Invitrogen GmbH, Karlsruhe, Germany) by diluting laminin to a concentration of 100 μg/ml with PBS (Ca—Mg-free PBS, Gibco Invitrogen GmbH, Karlsruhe, Germany). Aliquots having a concentration of 100 μg/ml of laminin are withdrawn and stored at −20° C. The aliquots are diluted with PBS in a ratio of 1:10 to 10 μg/ml of laminin and in each case 50 μl of the solution are pipetted into a well of the cell culture plate. The cell culture plates are incubated at 37° C. for at least two hours, the supernatant solution is removed by suction and the wells are each washed twice with PBS. The coated cell culture plates are stored with supernatant PBS which is not removed until directly before the application of the cells.
The spinal column is removed from beheaded rats and placed directly into cold HBSS buffer (Hank's buffered saline solution, Gibco Invitrogen GmbH, Karlsruhe, Germany), i.e. placed in an ice bath, which has been admixed with 1% by volume of an AA solution (antibiotic/antimycotic solution, PAA, Pasching, Austria). The spinal column is severed longitudinally and removed from the spinal canal together with fasciae. Subsequently, the dorsal root ganglia (DRGs) are removed and in turn stored in cold HBSS buffer admixed with 1% by volume of an […]. The DRGs freed completely of blood residues and spinal nerves are in each case transferred to 500 μl of cold type 2 collagenase (PAA, Pasching, Austria) and incubated at 37° C. for 35 minutes. After addition of 2.5% by volume of trypsin (PAA, Pasching, Austria), incubation is continued at 37° C. for a further 10 minutes. After complete incubation, the enzyme solution is cautiously pipetted off and the remaining DRGs are each admixed with 500 μl of complete medium.
The DRGs are each suspended repeatedly, drawn through cannulas No. 1, No. 12 and No. 16 by means of a syringe and transferred to 50 ml Falcon tubes which are made up to 15 ml with complete medium. The contents of each Falcon tube are in each case filtered through a 70 μm Falcon filter insert and centrifuged at 1200 revolutions and room temperature for 10 minutes. The resulting pellet is in each case taken up in 250 μl of complete medium and the cell count is determined.
The number of cells in the suspension is adjusted to 3 times 10^5 per ml and in each case 150 μl of this suspension are added to one well of the cell culture plates coated as described above. In the incubator, the plates are left to stand at 37° C., 5% by volume of CO2 and 95% relative air humidity for two to three days.
Subsequently, the cells are laden with 2 μM Fluo-4 and 0.01% by volume of Pluronic F127 (Molecular Probes Europe BV, Leiden, the Netherlands) in HBSS buffer (Hank's buffered saline solution, Gibco Invitrogen GmbH, Karlsruhe, Germany) at 37° C. for 30 min, washed 3× with HBSS buffer and, after a further incubation of 15 minutes, used in the FLIPR assay at room temperature for Ca^2+ measurement. […]

Data set [2] concerns the target T2, human vanilloid receptor 1 (VR1) (Homo sapiens, UniProt Q8NER1).
T2 construct: expressed in transfected cells; host or cells: CHO K1 cells (ECACC), stably transfected
Description: FLIPR Ca2+ functional study on human vanilloid receptor 1 (CHO K1 cells transfected with human VR1). Conditions: for inhibition at 10 µM: CHO-K1, test compound 10 μM, suppression of Ca2+ current after 100 nM capsaicin, relative to maximum inhibition with 10 μM capsaicin (CP), read-out: VR1 (human) (% inhibition compared to 10 μM CP); for EC50: agonistic action. Type of data set: cell-based. The protocol: Chinese hamster ovary cells (CHO K1 cells, European Collection of Cell Cultures (ECACC), England) are transfected stably with the human vanilloid receptor 1 (VR1) gene or the vanilloid receptor 1 (VR1) gene of the rat. For functional studies, these cells are plated out onto poly-D-lysine-coated black 96-well plates with a clear bottom (BD Biosciences, Heidelberg, Germany) in a density of 25 000 cells/well. The cells are incubated overnight at 37° C. and 5% CO2 in culture medium (Ham's Nutrient Mixture F12, Gibco Invitrogen GmbH, Karlsruhe, Germany) with 10% by volume of FBS (fetal bovine serum, Gibco Invitrogen GmbH, Karlsruhe, Germany), and 18 μg/ml of L-proline (Gibco Invitrogen GmbH, Karlsruhe, Germany). The next day, the cells are laden with 2 μM Fluo-4 and 0.01% by volume of Pluronic F127 (Molecular Probes Europe BV, Leiden, The Netherlands) in HBSS buffer (Hank's buffered saline solution, Gibco Invitrogen GmbH, Karlsruhe, Germany) at 37° C. for 30 min. Subsequently, the plates are washed 3 times with HBSS buffer and, after a further incubation of 15 minutes at room temperature, used for Ca^2+ measurement in the FLIPR assay. The Ca^2+-dependent fluorescence is measured before and after addition of substances λex=488 nm, λem=540 nm). The quantification is effected by measuring the highest fluorescence intensity (FC, fluorescence counts) over the time.
The FLIPR protocol consists of 2 substance additions. First, the compounds to be tested (10 μM) are pipetted onto the cells obtained according to Ia or Ib and the Ca^2+ current is compared with the control (capsaicin 10 μM). This gives rise to the result in % activation based on the Ca^2+ signal after addition of 10 μM capsaicin (CP). After incubation for 5 minutes, 100 nM capsaicin is applied and the current of Ca^2+ is likewise determined.
Desensitizing agonists and antagonists lead to a suppression in the Ca^2+ current. % inhibition is calculated compared to the maximum achievable inhibition with 10 μM capsaicin.
Triple determinations (n=3) are performed and they are repeated in at least 3 independent experiments (N=4).

T2 sequence (Q8NER1 whole entry): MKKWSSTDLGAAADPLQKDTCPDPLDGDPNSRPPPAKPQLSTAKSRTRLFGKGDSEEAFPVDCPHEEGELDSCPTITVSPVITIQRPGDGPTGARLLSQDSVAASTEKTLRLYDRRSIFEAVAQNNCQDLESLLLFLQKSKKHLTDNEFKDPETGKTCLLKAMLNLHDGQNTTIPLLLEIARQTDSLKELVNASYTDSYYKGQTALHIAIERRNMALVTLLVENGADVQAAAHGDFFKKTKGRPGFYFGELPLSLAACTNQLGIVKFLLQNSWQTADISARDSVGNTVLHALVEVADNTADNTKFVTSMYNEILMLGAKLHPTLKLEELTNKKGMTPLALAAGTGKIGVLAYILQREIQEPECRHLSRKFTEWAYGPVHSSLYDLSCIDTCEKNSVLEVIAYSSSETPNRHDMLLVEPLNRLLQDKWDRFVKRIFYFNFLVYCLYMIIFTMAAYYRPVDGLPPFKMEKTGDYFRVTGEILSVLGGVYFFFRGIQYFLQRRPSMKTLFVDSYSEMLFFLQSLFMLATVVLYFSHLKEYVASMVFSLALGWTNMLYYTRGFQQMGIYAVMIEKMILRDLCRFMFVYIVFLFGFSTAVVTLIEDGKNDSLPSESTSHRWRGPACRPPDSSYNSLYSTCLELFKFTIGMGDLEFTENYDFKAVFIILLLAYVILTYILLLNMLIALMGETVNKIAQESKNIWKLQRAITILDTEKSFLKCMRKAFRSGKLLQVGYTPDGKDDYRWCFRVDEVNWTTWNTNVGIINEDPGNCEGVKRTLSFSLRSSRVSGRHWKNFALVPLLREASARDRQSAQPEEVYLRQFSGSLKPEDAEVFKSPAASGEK
T1 sequence (O35433 whole entry): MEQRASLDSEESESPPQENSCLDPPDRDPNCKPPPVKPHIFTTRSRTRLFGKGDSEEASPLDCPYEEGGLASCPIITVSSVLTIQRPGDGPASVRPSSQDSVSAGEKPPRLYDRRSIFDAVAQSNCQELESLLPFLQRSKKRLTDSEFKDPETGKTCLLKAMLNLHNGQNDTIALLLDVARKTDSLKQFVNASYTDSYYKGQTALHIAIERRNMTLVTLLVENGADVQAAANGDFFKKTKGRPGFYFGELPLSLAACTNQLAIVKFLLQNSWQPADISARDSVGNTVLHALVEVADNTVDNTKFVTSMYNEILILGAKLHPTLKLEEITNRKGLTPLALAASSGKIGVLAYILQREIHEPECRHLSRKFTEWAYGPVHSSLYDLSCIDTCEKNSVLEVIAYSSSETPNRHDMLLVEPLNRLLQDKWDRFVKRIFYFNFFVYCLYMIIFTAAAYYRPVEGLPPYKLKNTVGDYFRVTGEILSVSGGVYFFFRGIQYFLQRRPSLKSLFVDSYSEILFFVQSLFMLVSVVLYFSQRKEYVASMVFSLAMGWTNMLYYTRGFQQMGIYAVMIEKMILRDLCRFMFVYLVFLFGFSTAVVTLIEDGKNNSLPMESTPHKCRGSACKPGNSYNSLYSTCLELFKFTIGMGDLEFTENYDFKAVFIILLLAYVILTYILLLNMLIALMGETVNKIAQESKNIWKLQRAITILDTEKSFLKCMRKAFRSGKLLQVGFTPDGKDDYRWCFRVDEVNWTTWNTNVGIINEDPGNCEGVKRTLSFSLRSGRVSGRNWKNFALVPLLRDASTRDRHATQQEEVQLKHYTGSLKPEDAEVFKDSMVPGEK

In general, inhibition refers to the change of the read-out against control, counted positive when it falls. What is called EC50 is the concentration needed to bring the measured effect to its halfway point. For orientation: melting point means the temperature of the solid-liquid transition. With `Cc1ccc2c(c1)[S+]([O-])CC(COC(=O)Nc1ccccc1)(COC(=O)Nc1ccccc1)C2=O` (stereo not drawn) [Example Compound 47, 3,3-bis(phenylcarbamoyloxymethyl)-7-methyl-1-oxo-1λ^4-thiochroman-4-one], the melting point lay in the range of 65 to 73 °C. For the same compound, in data set [1], the activation at 10 µM came to 11.8% and the inhibition at 10 µM was determined as 61.5%. Also, the EC50 in data set [1] (FLIPR) worked out at 20.3 µM. Besides, the inhibition at 10 µM in data set [2] came out at 59.2%. This compound also showed an EC50 in data set [2] (FLIPR) of 13.4 µM.

A word on the IC50: it is the concentration that gives 50% inhibition. `CC(C)(C)c1ccc(NC(=O)OCC2(COC(=O)Nc3ccc(C(C)(C)C)cc3)CSc3ccccc3C2=O)cc1` [Example Compound 50, 3,3-bis(4-tert-butylphenylcarbamoyloxymethyl)thiochroman-4-one] had a melting point of 78 to 85 °C. Further, in data set [1], the activation at 10 µM is 0% and the inhibition at 10 µM came out at 99.9%. In data set [1] (FLIPR, antagonistic action), this compound gave an IC50 of 5.7 µM. Also, the inhibition at 10 µM in data set [2] came out at 0%. Moreover, the IC50 in data set [2] (FLIPR, antagonistic action) was greater than 20 µM.

`Cc1ccc2c(c1)S(=O)(=O)CC(COC(=O)Nc1ccccc1)(COC(=O)Nc1ccccc1)C2=O` [Example Compound 48, 3,3-bis(phenylcarbamoyloxymethyl)-7-methyl-1,1-dioxo-1λ^6-thiochroman-4-one] came in with a melting point of 85 to 95 °C. Also, in data set [1], the activation at 10 µM amounted to 64.9% and the inhibition at 10 µM was determined as 88.8%. In data set [1] (FLIPR), this compound registered an EC50 of 3.4 µM. Further, the inhibition at 10 µM in data set [2] was 81.1%. The compound also had an EC50 in data set [2] (FLIPR) of 1.85 µM.

Compound `O=C(Nc1ccccc1)OCC1(COC(=O)Nc2ccccc2)CS(=O)(=O)c2ccccc2C1=O` [Example Compound 43, 3,3-bis(phenylcarbamoyloxymethyl)-1,1-dioxo-1λ^6-thiochroman-4-one] displayed a melting point of 72 to 78 °C. For the same compound, in data set [1], the activation at 10 µM came to 48.5% and the inhibition at 10 µM came out at 83.9%. This compound came in with an EC50 in data set [1] (FLIPR) of 25.4 µM. Further, the inhibition at 10 µM in data set [2] stood at 9.79%. Besides, it took 9 µM to reach a half-maximal effect in data set [2] (FLIPR) (EC50).
